According to patent US20140303092A1 (CHIMERIX, INC., priority 2011, published 2014):

Experiments:
VZV = assay: In vitro antiviral activity in cell culture, VZV; format: cell-based, varicella-zoster virus; conditions: Human alphaherpesvirus 3
HHV-6(B) = assay: In vitro antiviral activity in cell culture, HHV-6(B); format: cell-based, human herpesvirus 6; conditions: Human betaherpesvirus 6, B-cell
clinical = conditions: human, in vivo
Description: The pharmacokinetics of HDP-CDV (oral solution) were investigated in a dose-escalation study in healthy volunteers (Study HDP-CDV-102) in which single doses of up to 2 mg/kg and multiple doses (3 doses, each separated by 6 days) of up to 1 mg/kg were administered.

[1] = parameters: species or system human (healthy subjects); conditions: human, in vivo
Description: For this reason, in Study HDP-CDV-201, HDP-CDV was administered to fasted subjects. […] For this reason, in future studies, HDP-CDV may be administered with a food whenever possible.
However, the clinical significance of these findings is currently unknown and anecdotal reports indicate that gastrointestinal symptoms during HDP-CDV therapy may be mitigated by administration of HDP-CDV with food. […] In Study HDP-CDV-301, HDP-CDV is dosed with food; there is no restriction on the amount or type of food eaten. Therefore, evidence of the effectiveness of HDP-CDV is established in Study […] in subjects who receive HDP-CDV in the fed state.

[2] = rat, in vivo
Source text: AME of ^14C-HDP-CDV Following Oral Administration to Bile Duct-Intact and Bile Duct-Cannulated Rats. In order to more fully define the CYP enzymes involved in HDP-CDV elimination, the disposition and metabolism of ^14C-radiolabeled-HDP-CDV was studied in bile-duct cannulated rats either with or without pretreatment with the broad-spectrum CYP inhibitor aminobenzotriazole (ABT). This study has completed the in-life phase and sample analysis is ongoing.

P-gp = P-gp (Homo sapiens, UniProt P08183); assay: P-gp inhibition in vitro; format: in vitro ADME; conditions: in vitro results
Chain of P-gp (P08183 whole entry): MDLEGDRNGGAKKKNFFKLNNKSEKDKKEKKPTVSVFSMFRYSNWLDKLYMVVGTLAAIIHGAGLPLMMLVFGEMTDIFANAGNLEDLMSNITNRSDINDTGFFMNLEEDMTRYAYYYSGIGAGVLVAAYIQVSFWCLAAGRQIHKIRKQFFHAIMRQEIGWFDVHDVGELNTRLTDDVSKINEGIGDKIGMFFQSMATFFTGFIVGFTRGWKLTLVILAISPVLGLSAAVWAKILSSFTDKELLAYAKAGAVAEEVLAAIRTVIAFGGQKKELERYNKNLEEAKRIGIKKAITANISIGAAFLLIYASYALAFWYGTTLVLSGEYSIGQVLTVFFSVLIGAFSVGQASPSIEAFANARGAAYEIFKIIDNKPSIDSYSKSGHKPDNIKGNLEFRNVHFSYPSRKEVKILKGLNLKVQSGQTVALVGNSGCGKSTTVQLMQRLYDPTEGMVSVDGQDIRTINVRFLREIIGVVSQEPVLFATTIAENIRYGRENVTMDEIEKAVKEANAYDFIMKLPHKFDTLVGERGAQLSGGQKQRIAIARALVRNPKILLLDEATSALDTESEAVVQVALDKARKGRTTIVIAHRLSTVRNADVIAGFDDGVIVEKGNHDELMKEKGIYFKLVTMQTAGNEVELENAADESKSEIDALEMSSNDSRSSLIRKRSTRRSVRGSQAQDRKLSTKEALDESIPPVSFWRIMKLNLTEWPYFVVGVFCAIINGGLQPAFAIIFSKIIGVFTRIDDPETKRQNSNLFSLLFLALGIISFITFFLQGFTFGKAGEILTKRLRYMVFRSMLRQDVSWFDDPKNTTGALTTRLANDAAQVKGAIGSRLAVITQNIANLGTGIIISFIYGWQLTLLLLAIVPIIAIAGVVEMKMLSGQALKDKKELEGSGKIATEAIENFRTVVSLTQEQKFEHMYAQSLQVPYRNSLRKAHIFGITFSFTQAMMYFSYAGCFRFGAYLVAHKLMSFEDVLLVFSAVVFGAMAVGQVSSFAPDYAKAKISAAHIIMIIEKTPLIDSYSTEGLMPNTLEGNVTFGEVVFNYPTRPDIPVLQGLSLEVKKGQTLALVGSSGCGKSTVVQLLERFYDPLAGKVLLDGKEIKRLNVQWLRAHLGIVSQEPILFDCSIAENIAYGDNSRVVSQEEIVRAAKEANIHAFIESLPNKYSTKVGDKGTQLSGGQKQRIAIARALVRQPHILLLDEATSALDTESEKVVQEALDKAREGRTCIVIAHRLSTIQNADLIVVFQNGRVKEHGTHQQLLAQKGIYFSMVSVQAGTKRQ
Source text: Due to this potential interaction, digoxin is excluded medication in Study HDP-CDV-301 (see Example 5).

CMV = assay: Study HDP-CDV-350: virologic response of refractory CMV infection in HCT recipients; format: in vivo, human (allogeneic HCT recipients); conditions: for Proportion of subjects with ≧1 log10 last on-treatment reduction or last on-treatment reduction to ≦ LLOQ / Proportion of subjects with ≧1 log10 postbaseline reduction in CMV DNAemia or postbaseline reduction to ≦ LLOQ: LLOQ 100 copies/mL
Description: The virologic responses of 16 allogeneic HCT recipients enrolled and treated with HDP-CDV due to refractory CMV infection or disease and/or intolerance to available anti-CMV medications were evaluated.
All subjects completed a screening assessment (including obtaining written informed consent and, where applicable, assent) prior to initiating treatment with HDP-CDV.
HDP-CDV was given orally twice weekly (BIW); 100 mg BIW for adults or 2 mg/kg BIW for pediatrics. […] Eligible subjects received either a weight-based or fixed dose of HDP-CDV. Pediatric subjects (≦12 years old) received a 4 mg/kg total weekly dose (not-to-exceed 200 mg), as either 2 mg/kg twice-weekly (BIW) or 4 mg/kg once-weekly (QW). Adults and adolescent (13-17 years old) subjects received a 200 mg (not to exceed 4 mg/kg) total weekly dose, as either 100 mg BIW or 200 mg QW. BIW doses were administered at alternating 3- and 4-day intervals and QW doses on the same day each week.
Subjects were treated for an initial period of up to 3 months until either resolution or stabilization of their clinical disease or for 4 weeks following resolution of viral DNAemia, depending on the disease under treatment, whichever was longer. Treatment is extended for up to an additional 3 months, for a total duration of 6 months treatment, depending on the subject's clinical response.
Subjects underwent extensive safety monitoring, including routine safety laboratory assessments, physical examination, and vital sign measurements at regular intervals. In addition, subjects were monitored for viral DNA burden in plasma (DNAemia) and other affected compartments (e.g., urine, stool, CSF, etc.). Assessments were performed weekly for the first month, every 1 or 2 weeks for the next 2 months, and monthly thereafter for as long as treatment was continued. Subjects were monitored for adverse events (AEs) and for selected concomitant medication throughout the entire study, including the 1 month posttreatment follow-up period.

[3] = test system: human liver microsomes and recombinant human CYP enzymes; assay: Study HDP-CDV-NCA-049: in vitro CYP reaction phenotyping, liver microsomes; format: in vitro ADME; conditions: liver microsomes from multiple species, previous studies
Source text: This study is expected to definitively quantify the major human metabolites arising from specific CYP enzymes and inform the need for a clinical DDI study investigating the effect of inhibition of these CYP enzymes on the PK of HDP-CDV.

CCCCCCCCCCCCCCCCOCCCOP(=O)(O)COC(CO)Cn1ccc(N)nc1=O (stereo not shown) [HDP-CDV]
EC50 (VZV): 0.4 nM
EC50 (HHV-6(B)): 7 nM
Cmax and AUC versus dose (clinical): increased approximately in proportion to dose
accumulation on Day 12 (clinical): negligible accumulation
quantifiable in urine (clinical): not quantifiable in the urine
half-life (clinical; 1 mg/kg): 1620 min
time of Cmax after administration (clinical; po): 2 to 3 h
reduction of peak plasma concentration (Cmax) [1]: 48%
reduction of systemic exposure (AUCinf) [1]: 28%
systemic exposure, tablet lower than oral solution ([1]; po): about 13%
administered radioactivity excreted in bile [2]: ~8%
administered radioactivity excreted in feces [2]: ~57%
administered radioactivity excreted in urine [2]: approximately 30%
radioactivity excreted in bile [2]: 3%
radioactivity excreted in feces [2]: 55%
radioactivity excreted in urine [2]: 28%
recovery of radioactivity [2]: ≥ 90%
inhibition of P-gp (P-gp): may inhibit P-gp
Maximal reduction in CMV VL from BL, mean (range) (CMV; 16 HCT recipients, 100 mg BIW adults or 2 mg/kg BIW pediatrics): 1.13 (−0.30-2.60) log10
Mean last on-treatment change from baseline CMV DNAemia (CMV; 16 subjects, qPCR plasma): −0.63 log10 copies/mL
Mean maximal postbaseline change in CMV DNAemia (CMV; 16 subjects, qPCR plasma): −1.13 log10 copies/mL
Change from Baseline CMV DNAemia, Mean (CMV; +1 Month Posttreatment, N 8): −1.00 log10 copies/mL
Change from Baseline CMV DNAemia, Mean (CMV; +1 Week Posttreatment, N 9): −0.63 log10 copies/mL
Proportion of subjects with ≧1 log10 last on-treatment reduction or last on-treatment reduction to ≦ LLOQ (CMV): (62.5%)
Proportion of subjects with ≧1 log10 postbaseline reduction in CMV DNAemia or postbaseline reduction to ≦ LLOQ (CMV): (81.3%)
Change from Baseline CMV DNAemia, Mean (CMV; Month 3, N 7): +0.16 log10 copies/mL
Change from Baseline CMV DNAemia, Mean (CMV; Month 4, N 4): −0.89 log10 copies/mL
Change from Baseline CMV DNAemia, Mean (CMV; Month 5, N 3): −0.84 log10 copies/mL
Change from Baseline CMV DNAemia, Mean (CMV; Month 6, N 3): −0.80 log10 copies/mL
subjects with >1 log10 reduction or ≦LOQ (2 log10) during tx (CMV; Thirteen of 16 subjects): 81%
Change from Baseline CMV DNAemia, Mean (CMV; Week 2, N 16): −0.22 log10 copies/mL
Change from Baseline CMV DNAemia, Mean (CMV; Week 3, N 15): −0.30 log10 copies/mL
Change from Baseline CMV DNAemia, Mean (CMV; Week 4, N 15): −0.52 log10 copies/mL
Change from Baseline CMV DNAemia, Mean (CMV; Week 5, N 14): −0.63 log10 copies/mL
Change from Baseline CMV DNAemia, Mean (CMV; Week 6, N 6): −0.66 log10 copies/mL
Change from Baseline CMV DNAemia, Mean (CMV; Week 7, N 10): −0.16 log10 copies/mL
Change from Baseline CMV DNAemia, Mean (CMV; Week 8, N 3): +0.22 log10 copies/mL
Change from Baseline CMV DNAemia, Mean (CMV; Week 9, N 8): −0.02 log10 copies/mL
Change from Baseline CMV DNAemia, Mean (CMV; Week 10, N 2): +0.11 log10 copies/mL
Change from Baseline CMV DNAemia, Mean (CMV; Week 11, N 9): +0.06 log10 copies/mL
Proportion of subjects with ≧1 log10 last on-treatment reduction or last on-treatment reduction to ≦ LLOQ (CMV; subjects/N): 10/16
Proportion of subjects with ≧1 log10 postbaseline reduction in CMV DNAemia or postbaseline reduction to ≦ LLOQ (CMV; subjects/N): 13/16
in vitro turnover [3]: low in vitro turnover
